# How the values were obtained:
# GDP-loaded KRAS G12D = GDP-loaded KRAS G12D (Homo sapiens (Human), UniProt P01116, G12D); test: KRAS G12D (GDP) biochemical assay (TR-FRET probe displacement); assay type: binding; conditions: 2 hours
# Procedure, shortened: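 TR-FRET probe displacement: 1:3 DMSO serial dilutions pre-incubated 30 min with GDP-bound KRAS G12D, followed by Eu-streptavidin/probe for 2 h at room temperature (Hepes pH 7.4, NaCl, MgCl2, Tween-20 buffer). IC50 defined as concentration halving TR-FRET ratio, from sigmoidal dose-response fit.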
# GP2D (KRAS G12D) cells = test: 2D cell viability assay (CellTiter-Glo); assay type: cell-based; conditions: GP2d, 96 h, 4 days
# Procedure, shortened: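 Viability was read by CellTiter-Glo after 4 days at 37 °C of 2D culture of KRAS G12D GP2D cells (1000/well, RPMI, 10% FBS) on pre-spotted threefold compound dilutions. EC50 was fitted with a sigmoidal dose-response model as the point of half-maximal luminescence loss.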
# Chain of GDP-loaded KRAS G12D (P01116-2 other isoform, or with tags, fused parts or gaps G12D): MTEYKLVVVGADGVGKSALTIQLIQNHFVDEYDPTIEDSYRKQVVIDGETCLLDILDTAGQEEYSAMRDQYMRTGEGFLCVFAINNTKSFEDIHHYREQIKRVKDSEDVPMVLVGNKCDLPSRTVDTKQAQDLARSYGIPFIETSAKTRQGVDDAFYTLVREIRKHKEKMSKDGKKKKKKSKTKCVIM
Structure (SMILES),IC50 (GDP-loaded KRAS G12D) [nM],EC50 (GP2D (KRAS G12D) cells) [nM]
"C#Cc1c(F)ccc2cccc(-c3nc4c5c(nc(OC[C@@]67CCCN6[C@H](COc6ncncc6C(F)F)CC7)nc5c3F)N3C[C@H]5CC[C@H](N5)[C@H]3CCC4)c12 [Example 206, (6aR,7S,10R)-13-(((3S,7aS)-3-(((5-(difluoromethyl)pyrimidin-4-yl)oxy)methyl)tetrahydro-1H-pyrrolizin-7a(5H)-yl)methoxy)-2-(8-ethynyl-7-fluoronaphthalen-1-yl)-1-fluoro-5,6,6a,7,8,9,10,11-octahydro-4H-3,11a,12,14,15-pentaaza-7,10-methanocyclohepta[4,5]cycloocta[1,2,3-de]naphthalene]",0.04,1.6
"C#Cc1c(F)ccc2cccc(-c3nc4c5c(nc(OC[C@@]67CCCN6C[C@H](F)C7)nc5c3F)N3C[C@H]5CC[C@H](N5)[C@H]3C[C@H]4O)c12 [Example 186, (4R,5aR,6S,9R)-2-(8-ethynyl-7-fluoronaphthalen-1-yl)-1-fluoro-12-(((2R,7aS)-2-fluorotetrahydro-1H-pyrrolizin-7a(5H)-yl)methoxy)-4,5,5a,6,7,8,9,10-octahydro-3,10a,11,13,14-pentaaza-6,9-methanonaphtho[1,8-ab]heptalen-4-ol]",0.2,13
"Oc1cc(-c2nc3c4c(nc(OC[C@@]56CCCN5C[C@H](F)C6)nc4c2F)N2C[C@H]4CC[C@H](N4)[C@H]2CO3)c2c(F)c(F)c(F)cc2c1 [Example 11, 5,6,7-trifluoro-4-((5aS,6S,9R)-1-fluoro-12-(((2R,7aS)-2-fluorotetrahydro-1H-pyrrolizin-7a(5H)-yl)methoxy)-5a,6,7,8,9,10-hexahydro-5H-4-oxa-3,10a,11,13,14-pentaaza-6,9-methanonaphtho[1,8-ab]heptalen-2-yl)naphthalen-2-ol]",1,56
"C#Cc1c(F)ccc2cc(N)cc(-c3cc4c5c(nc(OC[C@@]67CCCN6C[C@H](F)C7)nc5c3F)N3C[C@H]5CC[C@H](N5)[C@@H]3[C@@H](C)C4)c12 [Example 193, 5-ethynyl-6-fluoro-4-((1S,4R,14S,14aS)-10-fluoro-8-(((2R,7aS)-2-fluorotetrahydro-1H-pyrrolizin-7a(5H)-yl)methoxy)-14-methyl-1,2,3,4,5,13,14,14a-octahydro-1,4-epiminoazepino[1′,2′:1,7]azepino[2,3,4-de]quinazolin-11-yl)naphthalen-2-amine]",0.05,4.9
"C#Cc1c(F)ccc2cc(O)cc(-c3nc4c5c(nc(OC[C@@]67CCCN6[C@H](COCC(F)(F)F)CC7)nc5c3F)N3C[C@H]5CC[C@H](N5)[C@H]3CC4)c12 [Example 163, 5-ethynyl-6-fluoro-4-((5aR,6S,9R)-1-fluoro-12-(((3S,7aS)-3-((2,2,2-trifluoroethoxy)methyl)tetrahydro-1H-pyrrolizin-7a(5H)-yl)methoxy)-4,5,5a,6,7,8,9,10-octahydro-3,10a,11,13,14-pentaaza-6,9-methanonaphtho[1,8-ab]heptalen-2-yl)naphthalen-2-ol]",0.1,5.1
"C#Cc1c(F)ccc2cc(O)cc(-c3nc4c5c(nc(OCC67CCCN6C[C@H](OC(F)(F)F)C7)nc5c3F)N3C[C@H]5CC[C@H](N5)[C@H]3CC4)c12 (stereo partly drawn) [Example 138, 5-ethynyl-6-fluoro-4-((5aR,6S,9R)-1-fluoro-12-((cis-2-(trifluoromethoxy)tetrahydro-1H-pyrrolizin-7a(5H)-yl)methoxy)-4,5,5a,6,7,8,9,10-octahydro-3,10a,11,13,14-pentaaza-6,9-methanonaphtho[1,8-ab]heptalen-2-yl)naphthalen-2-ol]",0.3,17.2
C#Cc1c(F)ccc2cc(O)cc(-c3nc4c5c(nc(OCC6(CN7CCC[C@@H](F)C7)CC6)nc5c3F)N3C[C@H]5CC[C@H](N5)[C@H]3CC4)c12 [Example 67],0.08,1
"Fc1ccc2cccc(-c3nc4c5c(nc(OCC6(CN7CC[C@H](OC(F)(F)F)C7)CC6)nc5c3F)N3C[C@H]5CC[C@H](N5)[C@H]3CC4)c2c1OC(F)(F)F [Example 125, (5aR,6S,9R)-1-fluoro-2-(7-fluoro-8-(trifluoromethoxy)naphthalen-1-yl)-12-((1-(((S)-3-(trifluoromethoxy)pyrrolidin-1-yl)methyl)cyclopropyl)methoxy)-4,5,5a,6,7,8,9,10-octahydro-3,10a,11,13,14-pentaaza-6,9-methanonaphtho[1,8-ab]heptalene]",417,1000
"C#Cc1c(F)ccc2cc(O)cc(-c3nc4c5c(nc(OC[C@@]67CCCN6[C@H](CN=[N+]=[N-])CC7)nc5c3F)N3C[C@H]5CC[C@H](N5)[C@H]3CO4)c12 [Example 36, 4-((5aS,6S,9R)-12-(((3S,7aS)-3-(azidomethyl)tetrahydro-1H-pyrrolizin-7a(5H)-yl)methoxy)-1-fluoro-5a,6,7,8,9,10-hexahydro-5H-4-oxa-3,10a,11,13,14-pentaaza-6,9-methanonaphtho[1,8-ab]heptalen-2-yl)-5-ethynyl-6-fluoronaphthalen-2-ol]",0.2,4
"C#Cc1c(F)ccc2cccc(-c3nc4c5c(nc(OC[C@@]67CCCN6[C@H](COc6cnc(C(F)(F)F)cn6)CC7)nc5c3F)N3C[C@H]5CC[C@H](N5)[C@H]3CCC4)c12 [Example 197, (6aR,7S,10R)-2-(8-ethynyl-7-fluoronaphthalen-1-yl)-1-fluoro-13-(((3S,7aS)-3-(((5-(trifluoromethyl)pyrazin-2-yl)oxy)methyl)tetrahydro-1H-pyrrolizin-7a(5H)-yl)methoxy)-5,6,6a,7,8,9,10,11-octahydro-4H-3,11a,12,14,15-pentaaza-7,10-methanocyclohepta[4,5]cycloocta[1,2,3-de]naphthalene]",0.04,2.4
"C#Cc1c(F)ccc2cccc(-c3nc4c5c(nc(OC[C@@]67CCCN6C[C@@]6(CC6(F)F)C7)nc5c3F)N3C[C@H]5CC[C@H](N5)[C@@H]3[C@@H](C)C4)c12 [Example 85, (5S,5aS,6S,9R)-12-(((1S,7a'S)-2,2-difluorodihydro-1′H,3′H-spiro[cyclopropane-1,2′-pyrrolizin]-7a′(5′H)-yl)methoxy)-2-(8-ethynyl-7-fluoronaphthalen-1-yl)-1-fluoro-5-methyl-4,5,5a,6,7,8,9,10-octahydro-3,10a,11,13,14-pentaaza-6,9-methanonaphtho[1,8-ab]heptalene]",6.8,58
"C#Cc1c(F)ccc2cc(O)cc(-c3nc4c5c(nc(OC[C@@]67CCCN6C[C@H](F)C7)nc5c3F)N3C[C@H]5CC[C@H](N5)[C@H]3[C@@H](C(F)F)O4)c12 [Example 82, 4-((5S,5aS,6S,9R)-5-(difluoromethyl)-1-fluoro-12-(((2R,7aS)-2-fluorotetrahydro-1H-pyrrolizin-7a(5H)-yl)methoxy)-5a,6,7,8,9,10-hexahydro-5H-4-oxa-3,10a,11,13,14-pentaaza-6,9-methanonaphtho[1,8-ab]heptalen-2-yl)-5-ethynyl-6-fluoronaphthalen-2-ol]",11.4,104
"C#Cc1c(F)ccc2cccc(-c3nc4c5c(nc(OC[C@@]67CCCN6[C@H](COc6cnc(C(F)F)cn6)CC7)nc5c3F)N3C[C@H]5CC[C@H](N5)[C@H]3CCC4)c12 [Example 200, (6aR,7S,10R)-13-(((3S,7aS)-3-(((5-(difluoromethyl)pyrazin-2-yl)oxy)methyl)tetrahydro-1H-pyrrolizin-7a(5H)-yl)methoxy)-2-(8-ethynyl-7-fluoronaphthalen-1-yl)-1-fluoro-5,6,6a,7,8,9,10,11-octahydro-4H-3,11a,12,14,15-pentaaza-7,10-methanocyclohepta[4,5]cycloocta[1,2,3-de]naphthalene]",0.05,2.9
"Oc1cc(-c2nc3c4c(nc(OCC5(CN6CC[C@H](OC(F)(F)F)C6)CC5)nc4c2F)N2C[C@H]4CC[C@H](N4)[C@H]2CC3)c2c(OC(F)(F)F)c(F)ccc2c1 [Example 103, 6-fluoro-4-((5aR,6S,9R)-1-fluoro-12-((1-(((S)-3-(trifluoromethoxy)pyrrolidin-1-yl)methyl)cyclopropyl)methoxy)-4,5,5a,6,7,8,9,10-octahydro-3,10a,11,13,14-pentaaza-6,9-methanonaphtho[1,8-ab]heptalen-2-yl)-5-(trifluoromethoxy)naphthalen-2-ol]",5.3,62.6
"C#Cc1c(F)ccc2cc(O)cc(-c3nc4c5c(nc(OC[C@@]67CCCN6C[C@H](F)C7)nc5c3F)N3C[C@H]5CC[C@H](N5)[C@@H]3[C@@H](C)C4)c12 [Example 64, 5-ethynyl-6-fluoro-4-((5S,5aS,6S,9R)-1-fluoro-12-(((2R,7aS)-2-fluorotetrahydro-1H-pyrrolizin-7a(5H)-yl)methoxy)-5-methyl-4,5,5a,6,7,8,9,10-octahydro-3,10a,11,13,14-pentaaza-6,9-methanonaphtho[1,8-ab]heptalen-2-yl)naphthalen-2-ol]",0.1,0.3
"C#Cc1c(F)ccc2cccc(-c3nc4c5c(nc(OC[C@@]67CCCN6[C@H](COc6cnnc(C(F)(F)F)c6)CC7)nc5c3F)N3C[C@H]5CC[C@H](N5)[C@H]3CCC4)c12 [Example 199, (6aR,7S,10R)-2-(8-ethynyl-7-fluoronaphthalen-1-yl)-1-fluoro-13-(((3S,7aS)-3-(((6-(trifluoromethyl)pyridazin-4-yl)oxy)methyl)tetrahydro-1H-pyrrolizin-7a(5H)-yl)methoxy)-5,6,6a,7,8,9,10,11-octahydro-4H-3,11a,12,14,15-pentaaza-7,10-methanocyclohepta[4,5]cycloocta[1,2,3-de]naphthalene]",0.07,3.2

# From US20230339981A1, “KRAS G12D MODULATING COMPOUNDS” (priority 2022, published 2023)
